Reference: article PMC2962730 (Journal of neurochemistry, 2010)
Changes are numbered by the printed parent chain. Entries after “also recorded” stand apart in the source; their conditions may differ.

What was measured:
hVAChT wild-type [1] = biological target: T1, hVAChT wild-type (Homo sapiens, UniProt Q16572); experiment: ACh equilibrium binding by competition against [3H]vesamicol; conditions: WT hVAChT; pH 7.4
T1 sequence (Q16572 1-532): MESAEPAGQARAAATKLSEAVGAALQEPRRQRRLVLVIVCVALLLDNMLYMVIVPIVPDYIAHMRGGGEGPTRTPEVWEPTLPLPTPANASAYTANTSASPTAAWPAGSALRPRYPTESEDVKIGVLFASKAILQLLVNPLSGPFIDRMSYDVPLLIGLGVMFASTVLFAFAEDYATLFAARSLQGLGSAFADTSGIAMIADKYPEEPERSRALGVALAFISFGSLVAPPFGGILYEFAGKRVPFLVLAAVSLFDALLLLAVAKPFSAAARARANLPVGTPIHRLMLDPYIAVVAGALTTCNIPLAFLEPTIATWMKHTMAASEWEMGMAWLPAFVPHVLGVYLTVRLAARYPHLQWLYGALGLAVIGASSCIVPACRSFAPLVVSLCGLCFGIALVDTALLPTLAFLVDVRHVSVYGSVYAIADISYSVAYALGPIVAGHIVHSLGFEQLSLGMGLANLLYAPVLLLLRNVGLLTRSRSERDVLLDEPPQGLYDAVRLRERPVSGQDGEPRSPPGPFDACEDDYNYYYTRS

hVAChT A321F = biological target: T2, hVAChT A321F (Homo sapiens, UniProt Q16572, A321F); experiment: [3H]ACh transport; format: biochemical
T2 sequence (Q16572 1-532 A321F): T1 sequence (Q16572 1-532) with A321F

hVAChT wild-type [2] = biological target: T1, hVAChT wild-type; experiment: [3H]vesamicol saturation binding; conditions: WT hVAChT; pH 7.4; per mg postnuclear supernatant
hVAChT Y60H = biological target: T3, hVAChT Y60H (Homo sapiens, UniProt Q16572, Y60H); experiment: [3H]vesamicol saturation binding; conditions: pH 7.4
T3 sequence (Q16572 1-532 Y60H): T1 sequence (Q16572 1-532) with Y60H

hVAChT W325F = biological target: T4, hVAChT W325F (Homo sapiens, UniProt Q16572, W325F); experiment: [3H]vesamicol saturation binding; conditions: pH 7.4
T4 sequence (Q16572 1-532 W325F): T1 sequence (Q16572 1-532) with W325F

hVAChT C391A = biological target: T5, hVAChT C391A (Homo sapiens, UniProt Q16572, C391A); experiment: [3H]vesamicol saturation binding; conditions: pH 7.4
T5 sequence (Q16572 1-532 C391A): T1 sequence (Q16572 1-532) with C391A

[3] = tested on: rat VAChT (rVAChT) W331 mutants; conditions: mutations of W331 in rVAChT; ref Ojeda et al. 2004; cited from earlier work

SMILES	FHA, fraction of the ACh sites that have high affinity (hVAChT wild-type [1])	Vmax/Bmax, ACh transport normalized to Bmax (hVAChT A321F; pH 7.4) [min⁻¹]	Km (hVAChT A321F; read-out: KM, Michaelis-Menten constant for ACh transport, pH 7.4) [µM]	Bmax, maximal specific [3H]vesamicol binding (VAChT expression level) (hVAChT wild-type [2]) [pmol/mg]	Bmax, maximal specific [3H]vesamicol binding (VAChT expression level) (hVAChT Y60H) [pmol/mg]	Bmax, maximal specific [3H]vesamicol binding (VAChT expression level) (hVAChT W325F) [pmol/mg]	Bmax, maximal specific [3H]vesamicol binding (VAChT expression level) (hVAChT C391A) [pmol/mg]	effect on vesamicol affinity [3]
CC(=O)OCC[N+](C)(C)C [ACh, acetylcholine]	0.82 ± 0.04	6.0 ± 0.5	350 ± 100	–	–	–	–	–
O[C@@H]1CCCC[C@H]1N1CCC(c2ccccc2)CC1 (racemic) [vesamicol, ( )-trans-2-(4-phenylpiperidino)cyclohexanol]	–	–	–	50 ± 1	15 ± 1	75 ± 3	34 ± 3	no loss in affinity for vesamicol; also recorded: without affecting vesamicol affinity
